Measured values reported in the kinase profiling compilation of Christmann-Franck et al. (2016).

Legend:
Assay in all cases: radiometric filter-binding kinase assay
[1] = target: MAPK1 (human) (UniProt P28482)
[2] = target: GCK (human) (UniProt Q12851)
[3] = target: CSNK1D (human) (UniProt P48730)
[4] = target: MAP3K5 (human) (UniProt Q99683)
[5] = target: GSK3B (human) (UniProt P49841)
[6] = target: MYLK (human) (UniProt Q15746)
[7] = target: MAPK13 (human) (UniProt O15264)
[8] = target: PAK6 (human) (UniProt Q9NQU5)
[9] = target: HIPK2 (human) (UniProt Q9H2X6)
[10] = target: IGF1R (human) (UniProt P08069)
[11] = target: MAP3K1 (human) (UniProt Q13233)
[12] = target: MAP2K2 (human) (UniProt P36507)
[13] = target: PKN2 (human) (UniProt Q16513)
[14] = target: EPHB1 (human) (UniProt P54762)
[15] = tested on: PAK2 (human), Q13177 [T402E]
[16] = target: YES1 (human) (UniProt P07947)
[17] = target: FLT1 (human) (UniProt P17948)
[18] = tested on: AKT2 (human), P31751 [S474D]
[19] = target: FGFR1 (human) (UniProt P11362)
[20] = target: MAP3K9 (human) (UniProt P80192)
[21] = target: TTK (human) (UniProt P33981)
[22] = target: EPHB4 (human) (UniProt P54760)
[23] = target: MARK4 (human) (UniProt Q96L34)
[24] = target: MAPK9 (human) (UniProt P45984)
[25] = target: AURKA (human) (UniProt O14965)
[26] = target: EEF2K (human) (UniProt O00418)
[27] = target: CHEK1 (human) (UniProt O14757)
[28] = target: SRC (human) (UniProt P12931)
[29] = target: MAPK10 (human) (UniProt P53779)
[30] = target: AURKB (human) (UniProt Q96GD4)
[31] = target: PRKCZ (human) (UniProt Q05513)
[32] = target: MELK (human) (UniProt Q14680)
[33] = target: HIPK1 (human) (UniProt Q86Z02)
[34] = target: STK11 CAB39 STRADA (human) (UniProt Q9Y376+Q7RTN6+Q15831)
[35] = target: SYK (human) (UniProt P43405)
[36] = target: TAOK1 (human) (UniProt Q7L7X3)

Chain of TTK (human) (P33981 whole entry, looked up): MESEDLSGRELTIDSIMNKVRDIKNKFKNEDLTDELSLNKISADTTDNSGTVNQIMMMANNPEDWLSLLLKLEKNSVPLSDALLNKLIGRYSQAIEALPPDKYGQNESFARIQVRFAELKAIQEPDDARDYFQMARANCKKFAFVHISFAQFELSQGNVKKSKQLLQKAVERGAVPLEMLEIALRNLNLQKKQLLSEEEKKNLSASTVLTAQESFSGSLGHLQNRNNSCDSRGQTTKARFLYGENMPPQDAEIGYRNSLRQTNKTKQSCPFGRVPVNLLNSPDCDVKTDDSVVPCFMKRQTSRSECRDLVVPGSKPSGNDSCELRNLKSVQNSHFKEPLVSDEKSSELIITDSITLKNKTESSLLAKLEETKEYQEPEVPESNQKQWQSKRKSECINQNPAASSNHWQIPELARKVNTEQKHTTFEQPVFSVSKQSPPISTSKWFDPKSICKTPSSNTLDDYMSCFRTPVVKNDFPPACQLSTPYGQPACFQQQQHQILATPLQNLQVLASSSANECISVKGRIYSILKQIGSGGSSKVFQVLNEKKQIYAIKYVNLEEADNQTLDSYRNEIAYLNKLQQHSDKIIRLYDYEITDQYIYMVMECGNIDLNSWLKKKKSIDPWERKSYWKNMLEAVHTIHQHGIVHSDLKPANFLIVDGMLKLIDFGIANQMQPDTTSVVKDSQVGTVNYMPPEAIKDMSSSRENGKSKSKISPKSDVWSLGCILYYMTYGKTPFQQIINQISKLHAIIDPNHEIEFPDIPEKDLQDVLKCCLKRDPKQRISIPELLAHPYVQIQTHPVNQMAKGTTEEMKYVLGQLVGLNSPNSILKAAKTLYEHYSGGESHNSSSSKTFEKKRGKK
Chain of MAPK10 (human) (P53779 whole entry, looked up): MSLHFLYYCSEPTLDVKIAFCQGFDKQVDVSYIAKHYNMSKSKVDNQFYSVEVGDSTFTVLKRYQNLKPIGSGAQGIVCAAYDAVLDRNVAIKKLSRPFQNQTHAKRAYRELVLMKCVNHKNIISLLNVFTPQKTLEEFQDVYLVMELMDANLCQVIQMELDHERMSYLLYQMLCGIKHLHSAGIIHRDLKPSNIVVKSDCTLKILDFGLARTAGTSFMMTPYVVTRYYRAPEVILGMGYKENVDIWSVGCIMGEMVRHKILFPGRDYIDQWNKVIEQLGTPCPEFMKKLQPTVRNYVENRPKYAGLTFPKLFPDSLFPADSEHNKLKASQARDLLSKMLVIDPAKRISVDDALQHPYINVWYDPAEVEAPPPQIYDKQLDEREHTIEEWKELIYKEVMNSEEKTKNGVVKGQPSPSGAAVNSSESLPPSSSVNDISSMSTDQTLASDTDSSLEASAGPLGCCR
Chain of MAPK1 (human) (P28482 whole entry, looked up): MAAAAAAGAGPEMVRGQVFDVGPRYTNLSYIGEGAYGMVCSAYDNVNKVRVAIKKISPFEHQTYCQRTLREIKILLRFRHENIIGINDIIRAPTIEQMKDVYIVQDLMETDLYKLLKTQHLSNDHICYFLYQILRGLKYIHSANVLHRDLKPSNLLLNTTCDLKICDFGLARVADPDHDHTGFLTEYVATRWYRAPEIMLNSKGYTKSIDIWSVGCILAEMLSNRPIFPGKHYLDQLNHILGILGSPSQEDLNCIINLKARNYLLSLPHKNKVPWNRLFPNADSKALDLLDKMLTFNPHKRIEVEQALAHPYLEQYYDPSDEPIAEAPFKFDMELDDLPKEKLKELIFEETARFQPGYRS
Chain of EPHB1 (human) (P54762 whole entry, looked up): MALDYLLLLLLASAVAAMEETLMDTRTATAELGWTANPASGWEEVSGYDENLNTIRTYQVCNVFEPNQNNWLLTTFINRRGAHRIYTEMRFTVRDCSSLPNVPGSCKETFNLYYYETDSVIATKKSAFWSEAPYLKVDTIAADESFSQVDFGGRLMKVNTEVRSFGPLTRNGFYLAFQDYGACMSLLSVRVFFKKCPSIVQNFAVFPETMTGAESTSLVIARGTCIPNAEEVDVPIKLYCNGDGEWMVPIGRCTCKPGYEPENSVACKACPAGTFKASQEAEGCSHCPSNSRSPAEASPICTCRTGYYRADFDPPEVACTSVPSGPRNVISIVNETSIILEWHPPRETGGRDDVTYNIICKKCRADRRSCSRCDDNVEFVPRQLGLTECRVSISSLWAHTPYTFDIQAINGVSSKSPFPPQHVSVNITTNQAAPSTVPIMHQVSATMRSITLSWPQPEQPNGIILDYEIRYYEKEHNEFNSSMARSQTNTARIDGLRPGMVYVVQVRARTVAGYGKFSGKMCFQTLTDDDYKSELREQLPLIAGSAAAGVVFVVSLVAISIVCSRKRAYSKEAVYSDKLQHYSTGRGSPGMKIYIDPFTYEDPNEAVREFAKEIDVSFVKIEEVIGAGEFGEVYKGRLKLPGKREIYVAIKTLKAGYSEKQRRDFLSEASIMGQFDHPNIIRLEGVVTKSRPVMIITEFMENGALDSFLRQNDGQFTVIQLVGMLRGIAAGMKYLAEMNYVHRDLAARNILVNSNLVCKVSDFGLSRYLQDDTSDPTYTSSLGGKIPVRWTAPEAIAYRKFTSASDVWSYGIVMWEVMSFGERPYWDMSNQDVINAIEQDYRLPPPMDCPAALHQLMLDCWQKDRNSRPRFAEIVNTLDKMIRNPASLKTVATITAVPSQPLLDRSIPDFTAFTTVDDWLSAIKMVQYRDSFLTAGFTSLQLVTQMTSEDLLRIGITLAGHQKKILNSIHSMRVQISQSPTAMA
Chain of MAP2K2 (human) (P36507 whole entry, looked up): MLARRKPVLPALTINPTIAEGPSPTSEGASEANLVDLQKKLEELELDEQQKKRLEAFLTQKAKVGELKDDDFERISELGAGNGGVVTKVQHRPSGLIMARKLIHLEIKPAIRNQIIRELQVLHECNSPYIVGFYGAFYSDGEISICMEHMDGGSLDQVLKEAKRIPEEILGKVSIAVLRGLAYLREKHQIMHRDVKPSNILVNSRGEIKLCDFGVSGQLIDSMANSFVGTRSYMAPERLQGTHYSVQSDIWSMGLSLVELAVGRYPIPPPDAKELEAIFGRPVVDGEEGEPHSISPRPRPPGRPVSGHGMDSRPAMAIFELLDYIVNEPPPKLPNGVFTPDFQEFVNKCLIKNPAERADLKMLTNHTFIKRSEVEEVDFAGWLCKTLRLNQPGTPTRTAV
Chain of GCK (human) (Q12851 whole entry, looked up): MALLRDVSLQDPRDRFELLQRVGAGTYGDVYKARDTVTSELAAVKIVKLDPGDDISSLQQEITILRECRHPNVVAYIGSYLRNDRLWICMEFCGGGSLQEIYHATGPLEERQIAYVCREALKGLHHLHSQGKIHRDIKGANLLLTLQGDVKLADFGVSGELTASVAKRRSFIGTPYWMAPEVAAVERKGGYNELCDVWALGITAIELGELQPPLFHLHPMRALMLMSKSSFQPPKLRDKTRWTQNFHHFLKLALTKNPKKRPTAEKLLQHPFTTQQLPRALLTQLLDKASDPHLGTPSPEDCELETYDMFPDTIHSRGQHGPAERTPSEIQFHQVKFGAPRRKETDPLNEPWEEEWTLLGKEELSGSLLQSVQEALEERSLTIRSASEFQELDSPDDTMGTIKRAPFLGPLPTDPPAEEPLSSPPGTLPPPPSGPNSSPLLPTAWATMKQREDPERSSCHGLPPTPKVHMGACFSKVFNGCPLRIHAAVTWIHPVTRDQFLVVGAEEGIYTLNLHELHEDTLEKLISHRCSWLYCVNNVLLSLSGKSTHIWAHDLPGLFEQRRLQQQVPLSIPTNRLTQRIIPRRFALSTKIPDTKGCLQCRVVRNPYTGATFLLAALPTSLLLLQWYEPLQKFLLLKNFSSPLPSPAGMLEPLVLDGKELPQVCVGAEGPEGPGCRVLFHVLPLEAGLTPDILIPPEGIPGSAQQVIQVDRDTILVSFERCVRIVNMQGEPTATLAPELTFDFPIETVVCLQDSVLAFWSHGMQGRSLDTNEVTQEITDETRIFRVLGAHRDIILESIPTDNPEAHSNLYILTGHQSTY
Chain of CSNK1D (human) (P48730 whole entry, looked up): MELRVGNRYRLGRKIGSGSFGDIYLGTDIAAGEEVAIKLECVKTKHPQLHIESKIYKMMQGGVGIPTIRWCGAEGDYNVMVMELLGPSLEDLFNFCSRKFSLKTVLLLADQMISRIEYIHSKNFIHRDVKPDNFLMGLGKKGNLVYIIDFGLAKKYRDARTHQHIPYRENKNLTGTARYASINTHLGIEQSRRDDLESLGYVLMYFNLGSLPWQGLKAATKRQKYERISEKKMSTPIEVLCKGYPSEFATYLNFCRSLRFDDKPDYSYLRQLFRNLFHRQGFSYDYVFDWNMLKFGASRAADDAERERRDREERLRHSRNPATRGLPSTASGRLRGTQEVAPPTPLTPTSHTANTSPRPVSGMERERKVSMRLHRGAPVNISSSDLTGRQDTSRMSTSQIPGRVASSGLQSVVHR
Chain of CHEK1 (human) (O14757 whole entry, looked up): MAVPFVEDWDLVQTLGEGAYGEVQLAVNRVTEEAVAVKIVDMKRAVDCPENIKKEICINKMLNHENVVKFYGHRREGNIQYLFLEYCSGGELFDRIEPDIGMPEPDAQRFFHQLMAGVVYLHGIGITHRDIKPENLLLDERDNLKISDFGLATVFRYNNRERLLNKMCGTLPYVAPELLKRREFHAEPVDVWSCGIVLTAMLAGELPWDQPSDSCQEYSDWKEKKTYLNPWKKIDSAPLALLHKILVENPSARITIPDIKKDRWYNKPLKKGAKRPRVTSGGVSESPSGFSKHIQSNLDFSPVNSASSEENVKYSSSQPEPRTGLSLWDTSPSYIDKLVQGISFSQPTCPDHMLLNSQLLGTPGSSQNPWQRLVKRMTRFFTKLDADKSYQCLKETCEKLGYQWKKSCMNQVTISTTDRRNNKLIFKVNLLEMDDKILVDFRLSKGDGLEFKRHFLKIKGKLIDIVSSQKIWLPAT

`N#Cc1c(O)c2c(-c3ccc(-c4ccccc4O)cc3)csc2[nH]c1=O` showed a residual activity ([1]; compound 10.0 µM) of 103%, a residual activity ([1]; compound 50.0 µM) of 74% and a residual activity ([1]; compound 100.0 µM) of 49%. It also gave a residual activity ([2]; compound 10.0 µM) of 76%, a residual activity ([2]; compound 100.0 µM) of 14% and a residual activity ([3]; compound 10.0 µM) of 88%. For the same compound, the residual activity ([3]; compound 50.0 µM) was 60%, the residual activity ([3]; compound 100.0 µM) was 88% and the residual activity ([4]; compound 10.0 µM) was 140%. For the same compound, the residual activity ([4]; compound 100.0 µM) was 250%, the residual activity ([5]; compound 10.0 µM) was 80% and the residual activity ([5]; compound 50.0 µM) was 17%. For the same compound, the residual activity ([5]; compound 100.0 µM) was 46%, the residual activity ([6]; compound 10.0 µM) was 76% and the residual activity ([6]; compound 50.0 µM) was 39%. The residual activity ([6]; compound 100.0 µM) was 20%, the residual activity ([7]; compound 10.0 µM) was 107% and the residual activity ([7]; compound 50.0 µM) was 116%. The residual activity ([7]; compound 100.0 µM) was 124%, the residual activity ([8]; compound 10.0 µM) was 69% and the residual activity ([8]; compound 50.0 µM) was 92%. For the same compound, the residual activity ([8]; compound 100.0 µM) was 82%, the residual activity ([9]; compound 10.0 µM) was 99% and the residual activity ([9]; compound 50.0 µM) was 58%. The residual activity ([9]; compound 100.0 µM) was 19%, the residual activity ([10]; compound 10.0 µM) was 94% and the residual activity ([10]; compound 100.0 µM) was 65%. For the same compound, the residual activity ([11]; compound 10.0 µM) was 26%, the residual activity ([11]; compound 100.0 µM) was 7% and the residual activity ([12]; compound 10.0 µM) was 74%. The residual activity ([12]; compound 100.0 µM) was 19%, the residual activity ([13]; compound 10.0 µM) was 85% and the residual activity ([13]; compound 50.0 µM) was 85%. It also gave a residual activity ([13]; compound 100.0 µM) of 59%, a residual activity ([14]; compound 10.0 µM) of 110% and a residual activity ([14]; compound 100.0 µM) of 97%. It also gave a residual activity ([15]; compound 10.0 µM) of 94%, a residual activity ([15]; compound 100.0 µM) of 63% and a residual activity ([16]; compound 10.0 µM) of 96%. It also gave a residual activity ([16]; compound 50.0 µM) of 13%, a residual activity ([16]; compound 100.0 µM) of 16% and a residual activity ([17]; compound 10.0 µM) of 65%. The residual activity ([17]; compound 100.0 µM) was 11%, the residual activity ([18]; compound 10.0 µM) was 56% and the residual activity ([18]; compound 50.0 µM) was 37%. It also gave a residual activity ([18]; compound 100.0 µM) of 11%, a residual activity ([19]; compound 10.0 µM) of 109% and a residual activity ([19]; compound 50.0 µM) of 95%. The residual activity ([19]; compound 100.0 µM) was 50%, the residual activity ([20]; compound 10.0 µM) was 59% and the residual activity ([20]; compound 100.0 µM) was 18%. It also gave a residual activity ([21]; compound 10.0 µM) of 76%, a residual activity ([21]; compound 100.0 µM) of 48% and a residual activity ([22]; compound 10.0 µM) of 82%. For the same compound, the residual activity ([22]; compound 100.0 µM) was 49%, the residual activity ([23]; compound 10.0 µM) was 92% and the residual activity ([23]; compound 100.0 µM) was 45%. For the same compound, the residual activity ([24]; compound 10.0 µM) was 94%, the residual activity ([24]; compound 50.0 µM) was 89% and the residual activity ([24]; compound 100.0 µM) was 88%. It also gave a residual activity ([25]; compound 10.0 µM) of 93%, a residual activity ([25]; compound 100.0 µM) of 64% and a residual activity ([26]; compound 10.0 µM) of 89%. It also gave a residual activity ([26]; compound 50.0 µM) of 73%, a residual activity ([26]; compound 100.0 µM) of 64% and a residual activity ([27]; compound 10.0 µM) of 69%. It also gave a residual activity ([27]; compound 50.0 µM) of 98%, a residual activity ([27]; compound 100.0 µM) of 43% and a residual activity ([28]; compound 10.0 µM) of 44%. For the same compound, the residual activity ([28]; compound 50.0 µM) was 65%, the residual activity ([28]; compound 100.0 µM) was 10% and the residual activity ([29]; compound 10.0 µM) was 75%. The residual activity ([29]; compound 50.0 µM) was 70%, the residual activity ([29]; compound 100.0 µM) was 62% and the residual activity ([30]; compound 10.0 µM) was 53%. It also gave a residual activity ([30]; compound 50.0 µM) of 25%, a residual activity ([30]; compound 100.0 µM) of 22% and a residual activity ([31]; compound 10.0 µM) of 96%. The residual activity ([31]; compound 50.0 µM) was 67%, the residual activity ([31]; compound 100.0 µM) was 28% and the residual activity ([32]; compound 10.0 µM) was 46%. For the same compound, the residual activity ([32]; compound 50.0 µM) was 64%, the residual activity ([32]; compound 100.0 µM) was 21% and the residual activity ([33]; compound 10.0 µM) was 74%. The residual activity ([33]; compound 100.0 µM) was 35%, the residual activity ([34]; compound 10.0 µM) was 86% and the residual activity ([34]; compound 100.0 µM) was 65%. For the same compound, the residual activity ([35]; compound 10.0 µM) was 106%, the residual activity ([35]; compound 50.0 µM) was 36% and the residual activity ([35]; compound 100.0 µM) was 42%. The residual activity ([36]; compound 10.0 µM) was 83% and the residual activity ([36]; compound 100.0 µM) was 18%.

In the case of `CN(C)C/C=C/C(=O)Nc1cccc(C(=O)Nc2ccc(Nc3nccc(-c4cccnc4)n3)cc2)c1`, the residual activity ([1]; compound 0.1 µM) is reported as 99%, the residual activity ([1]; compound 1.0 µM) is reported as 114% and the residual activity ([2]; compound 0.1 µM) is reported as 45%. The residual activity ([2]; compound 1.0 µM) was 20%, the residual activity ([3]; compound 0.1 µM) was 63% and the residual activity ([3]; compound 1.0 µM) was 33%. For the same compound, the residual activity ([4]; compound 0.1 µM) was 96%, the residual activity ([4]; compound 1.0 µM) was 100% and the residual activity ([5]; compound 0.1 µM) was 88%. The residual activity ([5]; compound 1.0 µM) was 56%, the residual activity ([6]; compound 0.1 µM) was 96% and the residual activity ([6]; compound 1.0 µM) was 85%. For the same compound, the residual activity ([7]; compound 0.1 µM) was 106%, the residual activity ([7]; compound 1.0 µM) was 100% and the residual activity ([8]; compound 0.1 µM) was 87%. It also gave a residual activity ([8]; compound 1.0 µM) of 103%, a residual activity ([9]; compound 0.1 µM) of 85% and a residual activity ([9]; compound 1.0 µM) of 46%. It also gave a residual activity ([10]; compound 1.0 µM) of 102%, a residual activity ([11]; compound 0.1 µM) of 85% and a residual activity ([11]; compound 1.0 µM) of 100%. For the same compound, the residual activity ([12]; compound 0.1 µM) was 87%, the residual activity ([12]; compound 1.0 µM) was 102% and the residual activity ([13]; compound 0.1 µM) was 99%. The residual activity ([13]; compound 1.0 µM) was 92%, the residual activity ([14]; compound 0.1 µM) was 93% and the residual activity ([14]; compound 1.0 µM) was 86%. For the same compound, the residual activity ([15]; compound 0.1 µM) was 102%, the residual activity ([15]; compound 1.0 µM) was 93% and the residual activity ([16]; compound 0.1 µM) was 80%. For the same compound, the residual activity ([16]; compound 1.0 µM) was 58%, the residual activity ([17]; compound 0.1 µM) was 59% and the residual activity ([17]; compound 1.0 µM) was 32%. The residual activity ([18]; compound 0.1 µM) was 93%, the residual activity ([18]; compound 1.0 µM) was 106% and the residual activity ([19]; compound 0.1 µM) was 94%. For the same compound, the residual activity ([19]; compound 1.0 µM) was 95%, the residual activity ([20]; compound 0.1 µM) was 72% and the residual activity ([20]; compound 1.0 µM) was 39%. It also gave a residual activity ([21]; compound 0.1 µM) of 83%, a residual activity ([21]; compound 1.0 µM) of 77% and a residual activity ([22]; compound 0.1 µM) of 105%. It also gave a residual activity ([22]; compound 1.0 µM) of 109%, a residual activity ([23]; compound 0.1 µM) of 85% and a residual activity ([23]; compound 1.0 µM) of 83%. It also gave a residual activity ([24]; compound 0.1 µM) of 81%, a residual activity ([24]; compound 1.0 µM) of 19% and a residual activity ([25]; compound 0.1 µM) of 107%. It also gave a residual activity ([25]; compound 1.0 µM) of 97%, a residual activity ([26]; compound 0.1 µM) of 97% and a residual activity ([26]; compound 1.0 µM) of 101%. It also gave a residual activity ([27]; compound 0.1 µM) of 74%, a residual activity ([27]; compound 1.0 µM) of 88% and a residual activity ([28]; compound 0.1 µM) of 93%. It also gave a residual activity ([28]; compound 1.0 µM) of 72%, a residual activity ([29]; compound 0.1 µM) of 15% and a residual activity ([29]; compound 1.0 µM) of 16%. For the same compound, the residual activity ([30]; compound 0.1 µM) was 74%, the residual activity ([30]; compound 1.0 µM) was 73% and the residual activity ([31]; compound 0.1 µM) was 112%. It also gave a residual activity ([31]; compound 1.0 µM) of 103%, a residual activity ([32]; compound 0.1 µM) of 71% and a residual activity ([32]; compound 1.0 µM) of 48%. For the same compound, the residual activity ([33]; compound 0.1 µM) was 86%, the residual activity ([33]; compound 1.0 µM) was 78% and the residual activity ([34]; compound 0.1 µM) was 78%. For the same compound, the residual activity ([34]; compound 1.0 µM) was 91%, the residual activity ([35]; compound 0.1 µM) was 89% and the residual activity ([35]; compound 1.0 µM) was 72%. It also gave a residual activity ([36]; compound 0.1 µM) of 96%.
